Source: patent US20190262363A1, “ANTAGONIST OF MINERALOCORTICOID RECEPTOR FOR THE TREATMENT OF OSTEOARTHRITIS” (INSERM (INSTITUT NATIONAL DE LA SANTÉ ET DE LA RECHERCHE …, priority 2016, published 2019)
Entries after “also recorded” stand apart in the source; their conditions may differ.

Tested on: knee joints of SHHF^cp/cp rats (metabolic syndrome associated osteoarthritis model) and lean SHHF^+/+ rats
Assay: Chronic eplerenone treatment in lean SHHF+/+ and MetS SHHFcp/cp rats; knee joint histology and OARSI scoring
Type: in vivo, rat
Source text: In this study were used lean SHHF^+/+ (spontaneously hypertensive heart failure) rats as controls and obese SHHF^cp/cp rats, which have been characterized as a good model for metabolic syndrome (MetS). […] The absence of eple means that the considered rats are part of a control placebo group.
Animals of both lean SHHF^+/+ and MetS SHHF^cp/cp genotypes were divided randomly into two groups. Group I (n=4 for SHHF^+/+ and n=4 for SHHF^cp/cp) was given placebo and group II (n=4 for SHHF^+/+ and n=9 for SHHF^cp/cp) was given 100 mg.kg-1.day-1 of the selective MRA eplerenone (pure active molecule provided by Pfizer) in drinking water from 1.5 months to 12.5 months of age. The knee joints of 1.5- and 12.5- month-old specimens of each group (untreated SHHF^+/+ and SHHF^cp/cp and their treated counterparts) were fixed in 4% paraformaldehyde, decalcified in EDTA-phosphate buffered solution and then embedded in paraffin. […] thick adjacent sections were stained with Toluidine Blue, Hematoxylin and Eosin or submitted to collagen II immunohistochemistry in order to investigate cartilage destruction, osteophyte formation and lesions of the synovial tissue, respectively. The corresponding scores following OARSI guidelines were done blindly by independent researchers.

COC(=O)[C@@H]1CC2=CC(=O)CC[C@]2(C)[C@@]23O[C@@H]2C[C@@]2(C)[C@@H](CC[C@@]24CCC(=O)O4)[C@H]13 [eplerenone, Pregn-4-ene-7,21-dicarboxylic acid, 9,11-epoxy-17-hydroxy-3-oxo-,y-lactone, methyl ester, (7α,11α,17β)]
Cartilage histology (toluidine blue): fibrillations and loss of proteoglycans (12.5SHHF^cp/cp Eple knee joints vs untreated 12.5SHHF^cp/cp, FIG. 1D vs. 1C): markedly reduced fibrillations and loss of proteoglycans
Osteophytes, collagen II immunostaining (12.5SHHF^cp/cp Eple knee joints vs untreated 12.5SHHF^cp/cp, FIG. 2D vs. 2C): alleviated osteophytes
Synovial tissue histology (Hematoxylin & Eosin): inflammation and fibrosis (12.5SHHF^cp/cp Eple knee joints vs untreated 12.5SHHF^cp/cp, FIG. 3D vs. 3C): attenuated inflammation and fibrosis of the synovial tissue
OARSI scoring of the joint cartilage degradation (cartilage alterations) (12.5SHHF^cp/cp Eple rats vs placebo 12.5SHHF^cp/cp, 100 mg.kg-1.day-1 in drinking water from 1.5 to 12.5 months of age, FIG. 1E): prevents the degradation of joint cartilage; also recorded: drastically decreases the cartilage alterations
OARSI scoring of osteophyte (osteophyte formation) (12.5SHHF^cp/cp Eple rats vs placebo 12.5SHHF^cp/cp, 100 mg.kg-1.day-1 in drinking water from 1.5 to 12.5 months of age, FIG. 2E): reduces osteophyte formation; also recorded: significantly hampers osteophyte formation
OARSI scoring of the joint inflammation (synovial inflammatory and fibrotic events) (12.5SHHF^cp/cp Eple rats vs placebo 12.5SHHF^cp/cp, 100 mg.kg-1.day-1 in drinking water from 1.5 to 12.5 months of age, FIG. 3E): reduces the joint inflammation; also recorded: markedly reduces the level of inflammatory and fibrotic events
Knee joint phenotype (MetS 12.5SHHF^cp/cp Eple rats treated from 1.5 months onward, compared to placebo 12.5SHHF^cp/cp): phenotypes very similar to those of their ^12.5SHHF^+/+ counterparts
Knee joint phenotype (lean 12.5SHHF^+/+ eple rats, 100 mg.kg-1.day-1 in drinking water from 1.5 to 12.5 months of age): displayed normal phenotype
